Data published in patent US20170246176A1, “PHACOSCLEROSIS INHIBITOR” (KEIO UNIVERSITY, priority 2014, published 2017).

Tests used:
[1] = system: cornea state of the rat exposed to mainstream smoke; test: Fluorescent staining of cornea after smoking treatment by exposure to mainstream smoke; type: in vivo, Sprague-Dawley (SD) rats; conditions: male SD rats, smoking treatment 12 days, instillation 5 μL per eye, once before and 3 times after smoking treatment, 0.1% tiopronin or 0.005% pirenoxine (Catalin)
Description: (§1) Male 6-8-week-old Sprague-Dawley (SD) rats were divided into 4 groups, each group with 4 rats, and they were used as a nonsmoking treatment group (NT), a smoking treatment group (Smoking), a smoking treatment+0.1% tiopronin instillation group (S+0.1% Tiopronin), and a smoking treatment +0.005% pirenoxine instillation group (S+Catalin).
Tiopronin (Thiola Tab. 100, manufactured by Mylan EPD) was prepared to provide an active ingredient amount of 0.1 w/v %, whereby an ophthalmic solution was produced. Catalin For Ophthalmic 0.005% (manufactured by Senju Pharmaceutical Co., Ltd.) was used for the 0.005% pirenoxine instillation group. Each eye was instilled with 5 μL per instillation. Instillation was performed for 12 days, once before the following smoking treatment and 3 times after the treatment.
The smoking treatment was performed as follows by reference to the method of Higuchi et al. (Free Radic. Biol. Med., 2011, Vol. 51, pages 2210-2216). Rats were placed in a smoking chamber and 300 mL of mainstream smoke was added into the chamber with a syringe. Male 6-8-week-old SD rats (maximum 12 rats) were placed in a smoking chamber (60 cm×40 cm×35 cm) produced for the experiment, and fresh air was supplied into the chamber with an air pump. Tobacco (Seven Star. (registered trade mark)) was set on a 50 mL syringe, and the mainstream smoke was sucked and blown into the chamber. This suction operation was repeated 6 times, a total 300 mL of the mainstream smoke was added into the chamber, and the rats were left standing for 30 min while delivering fresh air by the pump. A similar operation was repeated 5 times more (total 6 times), thereby exposing the rats to the mainstream smoke for 3 hr in total per day. […] The body weight of the rats that underwent the smoking treatment for 12 days and the nonsmoking group was measured, and cornea, lacrimal gland, crystalline lens were harvested. […] Of the rats that underwent the smoking treatment, the instillation group (S+Tiopronin, S+Catalin) and the noninstillation group (Smoking) were compared for the fluorescence score.

[2] = system: hardening of crystalline lens due to exposure to mainstream smoke in rat; test: Measurement of crystalline lens hardness after smoking treatment; type: in vivo, Sprague-Dawley (SD) rats; conditions: male SD rats, smoking treatment 12 days; instillation 5 μL per eye, once before and 3 times after smoking treatment; 0.1% tiopronin or 0.005% pirenoxine (Catalin); Dunnett method, p<0.01
Description: as §1
Tiopronin (Thiola Tab. 100, manufactured by Mylan EPD) was prepared to provide an active ingredient amount of 0.1 w/v %, whereby an ophthalmic solution was produced. Catalin For Ophthalmic 0.005% (manufactured by Senju Pharmaceutical Co., Ltd.) was used for the 0.005% pirenoxine instillation group. Each eye was instilled with 5 μL per instillation. […]
The smoking treatment was performed as follows by reference to the method of Higuchi et al. (Free Radic. Biol. Med., 2011, Vol. 51, pages 2210-2216). […] The body weight of the rats that underwent the smoking treatment for 12 days and the nonsmoking group was measured, and cornea, lacrimal gland, crystalline lens were harvested. […] Of the rats that underwent the smoking treatment, the instillation group (S+Tiopronin, S+Catalin) and the noninstillation group (Smoking) were compared for the fluorescence score.
The crystalline lens isolated from the eyeball in Example 1 was measured for the crystalline lens hardness by the following method. […]

Compound | fluorescent staining score of cornea (corneal state), instillation group vs noninstillation smoking group [1] | fluorescent staining score of cornea (corneal state), instillation group vs noninstillation smoking group ([1]; listed as Catalin) | hardness of the crystalline lens (weight divided by distance), vs smoking treatment group [2]
O=C(O)c1cc(O)c2c3nc4ccccc4oc-3cc(=O)c2n1 [pirenoxine, 1-hydroxy-5-oxo-5H-pyrido[3,2-α]phenoxazine-3-carboxylic acid] | showed a tendency toward improvement | exacerbation of the corneal state due to instillation was not found | an increase in the hardness was significantly suppressed
CC(S)C(=O)NCC(=O)O (centres unmarked) [tiopronin, N-(2-mercaptopropionyl)glycine] | exacerbation of the corneal state due to instillation was not found | – | an increase in the hardness was significantly suppressed
